pKi: −log10 of the molar value. “Also recorded” adds a separate entry of the source.
How the values were obtained:
[1] = test system: rat middle cerebral artery distal obstruction cerebral ischemia model; test: dMCAO cerebral ischemia: infarct size by TTC staining; format: in vivo; conditions: HEA 7.5 mg/kg ip, 24 hours after modeling, vs model group
[2] = target: T1, rat striatum adenosine A2A receptor (Rattus norvegicus, UniProt P30543); test: adenosine A2A receptor ligand binding test ([3H]MSX-2); conditions: rat striatum homogenate, 0.75 nM [3H]MSX-2, 25° C. 30 min; read-out: Ki value of competitive binding with the adenosine A2A receptor
T1 construct: from tissue; host or cells: Wistar rat striatum
Method: Using Wistar rat, head was cut and the brain was removed, and cerebral cortex and striatum were separated, respectively weighed, added into 10 fold volume of ice-cooled Tris-HCL buffer solution (50 mM, PH7.5) according to 1:10, the tissue is homogenized, after the suspension was centrifuged the supernatant was discarded, the above-described solution wash was repeated for 3 times, centrifuged again and the supernatant was discarded, the precipitate was again mixed in 50 mM Tris-HCL buffer solution, the protein concentration in rat cerebral cortex determined by Coomassie Brilliant Blue Method (Bradford method) was 0.8 mg/ml, the protein content in rat striatum brain tissue homogenate was 1.3 mg/ml.
To a detect tube the HEA with different concentration (10^−9, 10^−8, 10^−7, 10^−6, 10^−5 mol/L) were added, mixed well, then incubated at 25° C. in water bath on shaking table for 30 min, the reaction liquid was drawn by a cell collector, passed the GF/B glass filter membrane (Watman), reaction was terminated, washed 3 times with Tris-HCl buffer solution, each time 3 ml, the filter membrane was removed and dried, then put into a scintillation vial containing 4 ml of scintillation solution to determine radioactivity. A radioactivity count to the filter membrane was conducted by a scintillation counter.

[3] = test system: mouse PD model induced by MPTP; test: MPTP induced mouse PD model: TH positive cells in substantia nigra; format: in vivo; conditions: MPTP 30 mg/kg mice; Cordyceps cicadae extract 1500 mg/kg; HEA 10 mg/kg ip; 14 days
Method: 24±1 g male C57BL/6 mice were randomly divided into six groups: control group, model group, Cordyceps cicadae extract group (1500 mg/kg) (the extract method can refer to Example 3), HEA (5 mg/kg, 10 mg/kg, 15 mg/kg) group. Using mouse PD model induced by 1-methyl-4-phenyl-[…] (MPTP), in Cordyceps cicadae crude extract group and HEA with different concentration group were respectively peritoneal injected for consecutive 14 days, and at Day 11, before 1 hour of drug administration, MPTP 30 mg/kg was peritoneally injected, for consecutive 4 days, after one day after the last administration, a behavior test of pole-climbing ability was conducted, after 4 days the rat wad killed by puling neck and the striatum was removed. […]
After completion of behaviour detection, the heart was perfuse with 4% paraformaldehyde and the brain was removed, fixed, desiccated, embedded, and different parts in substantia nigra region were removed for coronal sectioned, tyrosine hydroxylase was used as specific marker for the neuron. The primary antibody is monoclonal mouse TH antibody (1;1000, Sigma), and the secondary antibody is Alexa fluor 488 fluorescence labeling goat anti-mouse (1;1000, Molecular Probes). Taking photo by a fluorescence microscope, and the TH positive cell in the substantia nigra were counted.

[4] = target: T2, rat cerebral cortex adenosine A1 receptor (Rattus norvegicus, UniProt P25099); test: adenosine A1 receptor ligand binding test ([3H]DPCPX)
T2 construct: DPCPX; from tissue; host or cells: Wistar rat cerebral cortex
T2 sequence (P25099 1-326): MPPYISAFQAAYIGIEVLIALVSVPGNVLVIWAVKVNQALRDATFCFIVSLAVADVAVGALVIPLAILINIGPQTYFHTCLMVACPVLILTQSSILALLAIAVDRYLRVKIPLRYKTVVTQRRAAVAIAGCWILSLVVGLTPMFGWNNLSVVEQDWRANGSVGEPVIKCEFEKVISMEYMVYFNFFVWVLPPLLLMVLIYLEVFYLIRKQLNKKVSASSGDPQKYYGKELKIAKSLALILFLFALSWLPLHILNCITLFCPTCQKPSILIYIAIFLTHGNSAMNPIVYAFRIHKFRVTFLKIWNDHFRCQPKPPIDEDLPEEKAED

[5] = test system: mouse PD model induced by MPTP; test: MPTP induced mouse PD model: pole-climbing method; format: in vivo; conditions: MPTP 30 mg/kg mice; Cordyceps cicadae extract 1500 mg/kg; HEA 10 mg/kg ip; 14 days
Method: 24±1 g male C57BL/6 mice were randomly divided into six groups: control group, model group, Cordyceps cicadae extract group (1500 mg/kg) (the extract method can refer to Example 3), HEA (5 mg/kg, 10 mg/kg, 15 mg/kg) group. Using mouse PD model induced by 1-methyl-4-phenyl-[…] (MPTP), in Cordyceps cicadae crude extract group and HEA with different concentration group were respectively peritoneal injected for consecutive 14 days, and at Day 11, before 1 hour of drug administration, MPTP 30 mg/kg was peritoneally injected, for consecutive 4 days, after one day after the last administration, a behavior test of pole-climbing ability was conducted, after 4 days the rat wad killed by puling neck and the striatum was removed. The control group was given same amount of normal saline, the model group at Day 11, one hour before the normal saline was given, MPTP 30 mg/kg was peritoneally injected, for four consecutive days.
Heading down, the mouse was placed onto top of a wooden pole with a length of 50 cm, diameter of 10 mm, the time for the mouse clime from top to bottom along the pole was record, the time difference between before and after the modeling was calculate, and analyzed statistically.

T1 sequence (P30543 whole entry): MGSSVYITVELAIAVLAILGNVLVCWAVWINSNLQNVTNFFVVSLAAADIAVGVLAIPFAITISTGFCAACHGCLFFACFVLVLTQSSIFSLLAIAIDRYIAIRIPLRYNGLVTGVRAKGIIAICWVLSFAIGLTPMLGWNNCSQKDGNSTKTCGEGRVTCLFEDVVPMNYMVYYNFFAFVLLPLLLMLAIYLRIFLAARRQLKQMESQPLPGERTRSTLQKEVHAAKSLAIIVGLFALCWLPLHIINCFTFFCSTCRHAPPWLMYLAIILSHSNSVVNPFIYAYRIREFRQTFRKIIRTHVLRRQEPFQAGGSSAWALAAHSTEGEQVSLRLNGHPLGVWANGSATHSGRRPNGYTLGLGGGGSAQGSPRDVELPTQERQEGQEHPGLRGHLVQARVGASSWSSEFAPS

OCCNc1ncnc2c1ncn2[C@@H]1O[C@H](CO)[C@@H](O)[C@H]1O [HEA, N(6)-(2-hydroxyethyl)-adenosine]
infarct size (TTC staining) [1]: significantly reduce cerebral infarction area; also recorded: significantly reduce the infarct size of the injured brain | pKi [2]: ~5.05 | number of the TH positive cells in substantia nigra [3]: increase number of the TH positive cells | affinity to adenosine A1 receptor relative to adenosine A2A receptor ([4]; A1 versus A2A): 100 fold | selectivity to A1 receptor (in words) ([4]; A1 versus A2A binding): high selectivity to A1 receptor | pKi ([4]; rat cerebral cortex homogenate, 0.2 nM [3H]DPCPX, 25° C. 30 min, read-out: Ki value of competitive binding with the adenosine A1 receptor): 7.05 | multilimb coordination ability (pole-climbing) [5]: improve multilimb coordination ability of mouse to different degree

Reference: patent publication US10479814B2, “Adenosine receptor activation reagent and the uses of thereof” (Zhejiang Subtropical Crops Research Institute, priority 2014, dated 2019)
